# From the METLIN SMRT retention time set (Domingo-Almenara et al. 2019)
# Assay: gradient 5% acetonitrile 3 min, to 50% in 2 min, to 85% in 15 min, held 3 min, 100 µL/min
# Settings: column: Zorbax Extend-C18 2.1 x 50 mm; eluents: water / acetonitrile, 0.1% formic acid
# Outline: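 Standards, all pure, were combined into mixtures of ~100 molecules and run at 100 μL/min on a Zorbax Extend-C18 column (2.1 × 50 mm, 1.8 μm) with water and acetonitrile, each containing 0.1% formic acid. A coupled quadrupole time-of-flight mass spectrometer operated in positive and negative ionization mode. Retention time values come from computationally picked adduct peaks, each inspected manually.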
row,Structure (SMILES),RP-LC retention time
1,O=C(c1ccccc1C(F)(F)F)N1CCc2nc(-c3ccc(Cl)cc3)ncc2C1,1060 s
2,COCCN1C(=O)CC[C@]2(C(=O)NCc3ccc(OC)cc3OC)CCCC[C@@H]12,698 s
3,O=C(NCc1ccccc1)N1CCN(Cc2nc3ccc(Cl)cc3o2)CC1,723 s
4,CCCNc1cc(N2CCC(CCC(=O)NCc3ccc(F)cc3)CC2)ncn1,686 s
5,CN(CCc1noc(-c2ccc(F)cc2)n1)C(=O)COc1ccc(F)cc1,889 s
6,Cc1cccc(-c2noc(CCn3nc(-c4ccccc4)ccc3=O)n2)c1,1020 s
7,COc1ccc(-c2nc3ccc(Br)cn3c2Nc2ccc(C)cc2)cc1,847 s
8,O=C(NC1CCCCCCC1)C1CCCN(C(=O)Cc2cccc3ccccc23)C1 (stereo not given),1060 s
9,COc1ccc(NC(=O)N2CCC3(C2)C(=O)N(C)c2ccccc23)cc1 (stereo not given),745 s
10,O=C(Cn1cnc2cc3c(cc21)OCCO3)Nc1ccc2c(c1)OCCO2,623 s
11,Cn1cc(-c2nc(C(=O)NCc3ccccc3F)cs2)c2cccnc21,908 s
12,O=C(O)c1ccccc1C(=O)NCC1COc2ccccc2O1 (stereo not given),708 s
13,O=C(NCC(=O)N1CCc2ccccc21)Nc1ccccc1C(F)(F)F,890 s
14,COc1ccc(Nc2c(-c3ccc(C)cc3)nc3ncccn23)cc1,720 s
15,CCn1cc(C2=CCN(C(=O)NCc3ccc(C)cc3)CC2)c2cccnc21,873 s
16,CCN1c2ccc(C)cc2C(=O)NC12CCN(C(=O)c1ccc(C(F)(F)F)cc1)CC2,788 s
17,Cc1cc(C)n2c(Nc3ccc4c(c3)OCCO4)c(-c3ccc(Cl)cc3)nc2n1,746 s
18,Cc1ccc(NC(=O)Cn2nc3c(N4CCSCC4)nccn3c2=O)cc1C,839 s
19,CC1Cc2ccccc2N1C(=O)C1CCN(C(=O)c2cc(-c3ccncc3)n[nH]2)CC1 (stereo not given),645 s
20,COc1ccccc1-c1noc(Cn2ncn3nc(-c4ccccc4Cl)cc3c2=O)n1,1040 s
21,CCOc1ccccc1-c1noc(Cn2c(=O)n(-c3ccccc3F)c(=O)c3sccc32)n1,982 s
22,O=C(C1CCN(c2nnc(-n3cccc3)s2)CC1)N1CCN(c2ccccn2)CC1,640 s
23,CN(C)C(=O)Cn1c(=O)c2cccn2c2ccccc21,666 s

row,Structure (SMILES),RP-LC retention time
1,CCCn1cc(C(=O)Nc2ccc(OC)cc2)c(=O)c2ccc(C)nc21,1100 s
2,Cc1ccccc1Nc1c(-c2cccc(Br)c2)nc2c(C)cccn12,849 s
3,CCn1c(=O)c(C)nc2cc(-c3noc(/C=C/c4ccc(C)cc4)n3)ccc21,1170 s
4,CCCCN(CC)c1ccc(C(=O)O)cc1NC(=O)c1cccs1,1070 s
5,Nc1nc(N)c2cc(Sc3cccc(C(F)(F)F)c3)ccc2n1,686 s
6,COc1cccc(NC(=O)Cn2nc3n(c2=O)CCCCC3)c1,668 s
7,O=C1COc2ccc(Cl)cc2N1Cc1nc(-c2ccc3c(c2)OCO3)no1,1040 s
8,CCOc1ccc(S(=O)(=O)N2CCCC2C(=O)Nc2nnc(CC)s2)cc1 (stereo not given),805 s
9,COc1ccc(NC(=O)C2CCCN(c3nnc4ccccn34)C2)cc1Cl (stereo not given),702 s
10,COc1cc2c(cc1CNC(=O)Cn1cc(C(C)=O)c3ccccc31)OCCCO2,771 s
11,O=C(NC(=O)N1CCN(Cc2ccccc2)CC1)c1ccccc1,549 s
12,CCCN1CCN(C(=O)c2cn(-c3ccc(-c4nc(C(C)(C)C)no4)cn3)cn2)CC1,681 s
13,CCc1c(C2CCN(C(=O)c3ccnn3CC)CC2)noc1N,652 s
14,CSc1cccc(N2C(=O)C3N=NN(Cc4nc(-c5ccccc5)no4)C3C2=O)c1 (stereo not given),992 s
15,CCOC(=O)c1nc(Nc2ccccc2F)c2ccccc2n1,812 s
16,C[C@@H]1OC(=O)[C@H]2C[C@H]3CCCC[C@@H]3[C@@H](/C=C/[C@H]3CCC[C@H](C)N3C)[C@@H]12,745 s
17,CC(C)C(=O)NCc1csc(C2CCCN(C(=O)CC3CCCCC3)C2)n1 (stereo not given),816 s
18,COc1cc2c(cc1CNC(=O)Cn1cc(C#N)c3ccccc31)OCCCO2,853 s
19,CCc1nc(-c2ccc(-c3noc(CNC(=O)c4ccc(C)cc4)n3)cc2)cs1,1040 s
20,O=C([C@@H]1C[C@H](Oc2ccccc2)CN1C(=O)c1n[nH]c(=O)c2ccccc12)N1CCCC1,703 s
21,CCc1nnc(-c2cc(C)n(CC(=O)NC(C)c3ccccc3)c2C)o1 (stereo not given),805 s
22,COc1ccc(NC(=O)C2(CCO)CCN(c3ncccn3)C2)cn1 (stereo not given),706 s
23,O=C(Nc1ccc(OCc2nnc(-c3ccccc3)o2)cc1)c1ccoc1,808 s

row,Structure (SMILES),RP-LC retention time
1,CCN1CCCC(C(=O)NCc2cccc(OC)c2OC)(c2ccccc2)CC1 (stereo not given),660 s
2,COc1ccc2sc(N(CCN(C)C)C(=O)Cc3ccccc3)nc2c1,601 s
3,CCN(CC)S(=O)(=O)c1ccc(Cl)c(-c2nnc(-c3ccc(OC)cc3)o2)c1,1090 s
4,CCc1nc(-c2ccc3c(c2)CCN3C(=O)Cc2ccc(NC(C)=O)cc2)no1,796 s
5,CC(=O)N1CCC(C(=O)N2CCCn3cc(-c4ccccc4)nc32)CC1,602 s
6,O=C(/C=C/c1ccccc1)Nc1cccc(-c2nnc3n2CCCC3)c1,708 s
7,Cc1ccccc1-c1cc(N2CCN(C(=O)NCC3CCCO3)CC2)ncn1 (stereo not given),600 s
8,Cc1ccc(C)c(NC(=O)N2CCCC(Cn3cnc4cccnc43)C2)c1 (stereo not given),676 s
9,CC(C)(C)NC(=O)Nc1nnc(SCc2c(F)cccc2Cl)s1,946 s
10,Cc1cccc(OCC(=O)N2C[C@@H](F)C[C@H]2C(=O)N2CCc3ccccc32)c1,878 s
11,CCc1cc(=O)n(CC(=O)Nc2cccc(F)c2)c(N)n1,613 s
12,O=C(Cc1ccsc1)N1CCN(c2ncnc3c2CCC3)CC1,594 s
13,COc1ccc(NC(=O)C2CCN(S(=O)(=O)c3c(C)nn(-c4ccccc4)c3C)CC2)cc1OC,859 s
14,Cc1noc(C2(NC(=O)C3CCC3)CCCCC2)n1,745 s
15,Cc1ccccc1OCc1nc(CCN(C)C(=O)Cc2cccs2)no1,924 s
16,COc1ccc(NC(=O)c2cc(C(C)C)n3nccc3n2)cc1Cl,1130 s
17,Brc1cccc(-c2noc(-c3nc(-c4ccncc4)no3)n2)c1,1150 s
18,CCOC(=O)c1nnc2c(-c3ccc(Cl)cc3)c(C)nn2c1N,872 s
19,CCOC(=O)CC1(NC(=O)N2CCc3c(c(C(=O)N4CCCCC4)nn3C)C2)CCCCC1,810 s
20,O=c1c2oc3ccccc3c2ncn1Cc1nc(-c2ccc(F)c(Cl)c2)no1,1050 s
21,CCC[C@@H]1C[C@@H](C(=O)N[C@@H]([C@H]2O[C@H](SC)[C@@H](O)[C@@H](O)[C@H]2O)[C@@H](C)O)N(C)C1,584 s
22,CC(NC(=O)c1cn2cc(Cl)ccc2n1)c1ccc(F)cc1 (stereo not given),836 s
23,COc1ncc(C(=O)Nc2cccc(F)c2)c(C)n1,757 s

row,Structure (SMILES),RP-LC retention time
1,O=C(Cc1cccc(F)c1)NCC(=O)Nc1nc2ccccc2[nH]1,623 s
2,O=C(NCCOc1ccc(F)cc1)NCc1ccc(Cl)cc1,850 s
3,CCCN1CCn2cc(C(=O)NCc3cccc(Br)c3)nc2C1,624 s
4,Cn1nc(C(=O)Nc2ccccc2)c2c1CCN(C(=O)NCC1CCCO1)C2 (stereo not given),702 s
5,Cc1ccc(NC(=O)NC2CCN(c3cc(C)cc(C)c3)C2=O)cc1 (stereo not given),607 s
6,CCCNC(=O)N1CCCN(Cc2ccc3c(c2)OCO3)c2ccccc21,924 s
7,CC(C)n1cnc2c(C(=O)N[C@H]3CN4CCC3CC4)cc(Cl)cc21,692 s
8,NS(=O)(=O)c1ccc(NC(=O)Cn2cnc(-c3ccccc3)cc2=O)cc1,638 s
9,Fc1ccc(-c2nnc(Cc3nc(-c4ccc(Br)cc4)no3)o2)cc1,1110 s
10,O=C(NCc1ccnc(N2CCSCC2)c1)Nc1ccc(F)c(Cl)c1,673 s
11,COc1cccc(NC(=O)c2sc(-c3cn(C)c4ncccc34)nc2C)c1,927 s
12,Cc1cccc(Cn2nc(-c3nc(-c4ccc(F)cc4)no3)ccc2=O)c1,1160 s
13,O=C(Nc1ccc(F)cc1F)N1CCC(N(C(=O)C2CC2)C2CCOCC2)CC1,719 s
14,COc1ccc(Nc2c(C(=O)N3CCCC3)cnc3nc(C)ccc23)cc1OC,906 s
15,Cc1cccc(C(=O)Nc2c(C(=O)N3CCN(c4ccccn4)CC3)[nH]c3ccccc23)c1,613 s
16,CCCNC(=O)N1c2ccccc2CC1c1nc(C(C)C)no1 (stereo not given),910 s
17,COCc1noc([C@@H]2CN(C(=O)C3(c4ccccc4)CC3)C[C@H]2CO)n1,676 s
18,COCc1nc(CCNS(=O)(=O)c2ccc(OC)cc2)no1,731 s
19,CCNC(=O)CN1C(=O)C2CCCCN2c2ccc(S(=O)(=O)N(CC)CC)cc21 (stereo not given),804 s
20,CCn1ccc2sc(C)c(C(=O)NCc3cccs3)c2c1=O,772 s
21,COc1ccc(-c2noc(C3CCCN3C(=O)c3ccccc3)n2)cc1 (stereo not given),907 s
